# Assay: solvent given as SMILES
compound,measurement,setting,value
COc1ccc(C(=O)/C=C2\C(=O)Nc3ccccc32)c(OC)c1,absorption maximum,in C1CCCCC1,334 nm
same,absorption maximum,in C1COCCO1,336 nm
same,absorption maximum,in CC#N,328 nm
same,absorption maximum,in CC(C)(C)O,338 nm
same,absorption maximum,in CC(C)O,338 nm
same,absorption maximum,in CCCCCC,333 nm
same,absorption maximum,in CCCCO,340 nm
same,absorption maximum,in CCOC(C)=O,334 nm
same,absorption maximum,in CN(C)C=O,338 nm
same,absorption maximum,in CO,343 nm
same,absorption maximum,in ClCCl,331 nm
same,absorption maximum,in O,330 nm
COc1ccc(-c2csc(/C(C#N)=C/c3ccc([N+](=O)[O-])cc3)n2)cc1,absorption maximum,in CC#N,399 nm
CCCCC(CC)CN1C(=O)c2cccc3c(C#Cc4ccc(N(c5ccccc5)c5ccccc5)cc4)ccc(c23)C1=O (stereo not drawn),absorption maximum,in C1CCCCC1,422 nm
same,absorption maximum,in C1CCOC1,434 nm
same,absorption maximum,in CC#N,433 nm
same,absorption maximum,in Cc1ccccc1,438 nm
same,absorption maximum,in ClC(Cl)Cl,450 nm
CC1=C(C)c2cccc3c2c(cc2nc4ccccc4nc23)O1,absorption maximum,in ClCCl,497 nm
O=P(c1ccccc1)(c1ccccc1)c1cccc(-n2c(-c3ccccc3P(=O)(c3ccccc3)c3ccccc3)nc3ccccc32)c1,absorption maximum,in ClCCl,300 nm
CCCCCCc1ccc2c3c(ccc2c1)O[B-](F)(F)[N+](c1ccc([N+]2=Cc4c(ccc5cc(CCCCCC)ccc45)O[B-]2(F)F)cc1)=C3,absorption maximum,in C1CCOC1,425 nm
same,absorption maximum,in CC#N,422 nm
same,absorption maximum,in Cc1ccccc1,436 nm
same,absorption maximum,in ClCCl,430 nm
CC(C)(C)c1cc2c3c(c1)c1cc(C(C)(C)C)cc4c1n3B1c3c-2cccc3-c2cc(C(C)(C)C)cc3c5cc(C(C)(C)C)cc-4c5n1c23,absorption maximum,in C1CCOC1,439 nm
COc1ccc(-n2c3c4ccccc4nc(-c4ccc(C#N)cc4)c3c3c2c2c(-c4ccc(C#N)cc4)nc4ccccc4c2n3-c2ccc(OC)cc2)cc1,absorption maximum,in ClC(Cl)Cl,315 nm
CCn1c2ccccc2sc2c(C#N)c3oc4ccccc4oc3c(C#N)c21,absorption maximum,in ClC(Cl)Cl,460 nm
CCN(CC)c1ccc2cc(-c3nc4c5cccc6ccc7cccc(c7c65)c4n3-c3ccc(C(C)(C)C)cc3)c(=O)oc2c1,absorption maximum,in ClCCl,410 nm
CC1(C)c2ccccc2N(c2ccc(-c3cccc(C#N)c3)cc2)c2ccccc21,absorption maximum,in Cc1ccccc1,344 nm
c1ccc(C2c3ccccc3-c3cc4c(cc32)-c2ccccc2C4c2ccccc2)cc1 (stereo not drawn),absorption maximum,in ClCCl,328 nm
O=c1ccc2cc3ccoc3cc2o1,absorption maximum,in CC(C)O,298 nm
same,absorption maximum,in CCO,299 nm
same,absorption maximum,in CCOCC,294 nm
same,absorption maximum,in CO,300 nm
same,absorption maximum,in O,303 nm
CC1=NN(c2cccc3ccccc23)[B-](F)(F)[n+]2ccccc21,absorption maximum,in ClCCl,432 nm
CN(C)c1ccc(/C=C/c2ccncn2)cc1,absorption maximum,in ClCCl,393 nm
COc1ccc(C(=Cc2ccc(C=O)cc2)c2ccc(OC)cc2)cc1,absorption maximum,in C1CCOC1,356 nm
CC(C)(C)c1ccc2c(c1)c1cc(C(C)(C)C)ccc1n2-c1ccc(C#Cc2ccc(C#Cc3ccc(C=C(C#N)C#N)cc3)cc2)cc1,absorption maximum,in ClCCl,382 nm
COCCOc1ccc(OCCOC)c(C=O)c1,absorption maximum,in CC(C)(C)O,350 nm
same,absorption maximum,in CC(C)CO,350 nm
same,absorption maximum,in CC(C)O,349 nm
same,absorption maximum,in CCCCO,349 nm
same,absorption maximum,in CCCO,349 nm
same,absorption maximum,in CCO,349 nm
same,absorption maximum,in CN(C)C=O,350 nm
same,absorption maximum,in CNC=O,350 nm
same,absorption maximum,in CO,348 nm
same,absorption maximum,in NC=O,353 nm
same,absorption maximum,in O,349 nm
N#C/C(=C\c1ccc(C#N)cc1)c1nc(-c2ccccc2)c(-c2ccccc2)s1,absorption maximum,in CC#N,379 nm
COc1ccc(/C=C/c2cc(/C=C/c3ccc(OC)cc3)nc(/C=C/c3ccccc3)n2)cc1,absorption maximum,in ClCCl,369 nm
COc1cc2c3c4c(c5ccc(C(C)(C)C)cc5c5c(OC)cc(OC)c(c2c(OC)c1OC)c45)=[N+]1C3=Nc2c3c4cc(OC)c(OC)c(OC)c4c4c(OC)cc(OC)c5c6cc(C(C)(C)C)ccc6c(c3c54)n2[B-]1(F)F,absorption maximum,in Cc1ccccc1,878 nm
Cc1ccc(C2CC(=O)Oc3c2c2nc4ccc(C)cc4nc2c2ccccc32)cc1 (stereo not drawn),absorption maximum,in ClC(Cl)Cl,411 nm
CCCCOC(=O)/C(C#N)=C1\C(=CC2=[N+](C)c3ccccc3C2(C)C)C([O-])=C1C=C1N(C)c2ccccc2C1(C)C,absorption maximum,in ClC(Cl)Cl,691 nm
CCCCCCCCCCCCN1C(=O)c2ccc3c4ccc5c6c(ccc(c7ccc(c2c37)C1=O)c64)C(=O)N(CCCCCCCCCCCC)C5=O,absorption maximum,in CN(C)C=O,523 nm
CCOC(=O)CN(CC(=O)OCC)c1ccc(-c2cc(-c3ccccn3)nc(-c3ccccn3)c2)cc1,absorption maximum,in CC#N,328 nm
same,absorption maximum,in CCOC(C)=O,328 nm
same,absorption maximum,in CN(C)C=O,332 nm
same,absorption maximum,in CS(C)=O,336 nm
same,absorption maximum,in c1ccccc1,328 nm
COc1ccc(C2=[O+][B-](F)(F)OC(c3ccc4c(c3)Cc3ccccc3-4)=C2)cc1,absorption maximum,in CC#N,424 nm
COc1ccc(C2=C3C(/C=C/c4cc(OC)c(OC)c(OC)c4)=C(C=O)C(/C=C/c4cc(OC)c(OC)c(OC)c4)=[N+]3[B-](F)(F)n3c(/C=C/c4cc(OC)c(OC)c(OC)c4)c(C=O)c(C=Cc4cc(OC)c(OC)c(OC)c4)c32)cc1,absorption maximum,in ClCCl,688 nm
